Data published in PMC8175350, “Drug repurposing screens identify chemical entities for the development of COVID-19 interventions” (Nature Communications, 2021).
Where a name gives a salt, the structure may show the parent alone. Read-outs that look alike come from different tables or passages of the source.

Legend:
SARS-CoV-2 [1] = test: microbe, parasite or virus in culture; format: cell-based; conditions: for Emax: Severe acute respiratory syndrome coronavirus 2, Calu-3, 48 h
[2] = Uninfected HeLa-ACE2 24 h live/dead cytotoxicity counter screen; format: cell-based, human; conditions: human, uninfected HeLa-ACE2 cells
HeLa-ACE2 cells [3] = test: as above; format: cell-based, human; conditions: for CC50: read-out: HeLa-ACE2 uninfected cytotoxicity CC50 GeoMean
in vitro = conditions: human, Calu-3 uninfected cytotoxicity CC50 GeoMean (µM)
Calu-3 cells [4] = test: cells; conditions: Homo sapiens
Calu-3 cells [5] = tested on: Calu-3 cells
HeLa-ACE2 cells [6] = conditions: for HeLa-ACE2 cell count Sinf Average: curve-fit effect at infinite concentration; for EC50: read-out: HeLa-ACE2 cell count EC50 GeoMean, unrounded geometric mean
SARS-CoV-2 [7] = test: microbe, parasite or virus in culture; format: cell-based; conditions: for HeLa-ACE2 CoV-2 Sinf Average: curve-fit effect at infinite concentration; for Emax: Severe acute respiratory syndrome coronavirus 2, HeLa-ACE2, 24 h, read-out: HeLa-ACE2 CoV-2 Sinf Average
HeLa-ACE2 cells [8] = test: cells; conditions: Homo sapiens
Calu-3 cells [9] = test: Uninfected Calu-3 48 h Cell-Titer Glo cytotoxicity counter screen; conditions: for CC50: read-out: Calu-3 uninfected cytotoxicity CC50 GeoMean, unrounded geometric mean
Calu-3 cells [10] = conditions: for EC50: read-out: Calu-3 cell count EC50 GeoMean
SARS-CoV-2 [11] = format: cell-based
SARS-CoV-2 [12] = test: microbe, parasite or virus in culture; format: cell-based; conditions: for EC50: read-out: HeLa-ACE2 TOA CoV-2 EC50 GeoMean
HEK293T [13] = conditions: human, 72 h
HepG2 [14] = conditions: human, 72 h
HeLa-ACE2 cells [15] = test: Total cell count in the HeLa-ACE2 TOA assay; format: cell-based; conditions: Homo sapiens, HeLa-ACE2, read-out: HeLa-ACE2 TOA cell count EC50 GeoMean
Excerpt: Supplement 41467_2021_23328_MOESM3_ESM.xlsx, sheet "Table S1" | column: HeLa-ACE2 TOA cell count

HeLa-ACE2 cells [16] = test: Total cell count in the HeLa-ACE2 TOA (time of addition) assay; format: cell-based, human; conditions: Homo sapiens, HeLa-ACE2; read-out: HeLa-ACE2 TOA cell count EC50 GeoMean
HepG2 [17] = test: HepG2 72 h CellTiter-Glo cytotoxicity; conditions: 72 h
[18] = HepG2 72 h CellTiter-Glo cytotoxicity; conditions: human, HepG2 cells
[19] = ref [33]-[49], cited from earlier work
HEK293T [20] = test: HEK293T 72 h CellTiter-Glo cytotoxicity; conditions: 72 h
[21] = HEK293T 72 h CellTiter-Glo cytotoxicity; conditions: human, HEK293T cells
[22] = Uninfected Calu-3 48 h Cell-Titer Glo cytotoxicity counter screen; conditions: human, uninfected Calu-3 cells
[23] = curve-fit effect at infinite concentration, average
[24] = unrounded geometric mean, read-out: Calu-3 CoV-2 EC50 GeoMean
[25] = unrounded geometric mean, read-out: HeLa-ACE2 CoV-2 EC50 GeoMean
[26] = curve plateau at infinite concentration

CN(C)C(C(=O)Nc1ccc2c(=O)[nH]ccc2c1)c1ccsc1 (centres unmarked) [Verosudil]
Emax (SARS-CoV-2 [1]; Sinf average of the curves, read-out: Calu-3 CoV-2 Sinf Average (%)): 93%
EC50 (SARS-CoV-2 [1]; Severe acute respiratory syndrome coronavirus 2, Calu-3, geometric mean of replicates, read-out: Calu-3 CoV-2 EC50 GeoMean): > 3.51 µM
CC50 at 24 h ([2]; geometric mean of replicates, read-out: HeLa-ACE2 uninfected cytotoxicity CC50 GeoMean): > 39.8 µM
HeLa-ACE2 uninfected cytotoxicity Sinf Average (%) (HeLa-ACE2 cells [3]; Sinf average of the curves): -100%
CC50 at 48 h (in vitro): > 18.9 µM
Emax (Calu-3 cells [4]; Calu-3, 48 h, read-out: Calu-3 cell count Sinf Average (%)): 79%
EC50 (Calu-3 cells [4]; Calu-3, read-out: Calu-3 cell count EC50 GeoMean (µM), geometric mean of replicates): 0.561 µM
uninfected Calu-3 CC50 [μM] (Calu-3 cells [5]): > 18.887 ×÷ 2.21 (n=3) μM
Calu-3 uninfected cytotoxicity Sinf Average (%) (Calu-3 cells [5]; human, 48 h): 80%
HeLa-ACE2 cell count Sinf Average (%) (HeLa-ACE2 cells [6]; Sinf average of the curves): -100%
EC50 (SARS-CoV-2 [7]; Severe acute respiratory syndrome coronavirus 2, HeLa-ACE2, geometric mean of replicates, read-out: HeLa-ACE2 CoV-2 EC50 GeoMean): > 9.59 µM
EC50 (HeLa-ACE2 cells [8]; HeLa-ACE2, read-out: HeLa-ACE2 cell count EC50 GeoMean (µM), geometric mean of replicates): > 9.59 µM

NS(=O)(=O)c1ccc(N2N=C(C(F)(F)F)CC2c2c[nH]c3c(Cl)cccc23)cc1 (centres unmarked) [ON-09310]
Calu-3 CoV-2 Sinf Average (SARS-CoV-2 [1]; [23]): -95%
EC50 (SARS-CoV-2 [1]; [24]): 1.81 µM
HeLa-ACE2 uninfected cytotoxicity Sinf Average (HeLa-ACE2 cells [3]; [23]): -103%
CC50 (HeLa-ACE2 cells [3]; unrounded geometric mean): 8.2 µM
Calu-3 uninfected cytotoxicity Sinf Average (Calu-3 cells [9]; [23]): -97%
CC50 (Calu-3 cells [9]): 16.9 µM
HeLa-ACE2 cell count Sinf Average (HeLa-ACE2 cells [6]): -100%
EC50 (HeLa-ACE2 cells [6]): > 9.33 µM
Calu-3 cell count Sinf Average (Calu-3 cells [10]; [23]): 100%
EC50 (Calu-3 cells [10]; unrounded geometric mean): > 8.32 µM
HeLa-ACE2 CoV-2 Sinf Average (SARS-CoV-2 [7]): -100%
EC50 (SARS-CoV-2 [7]; [25]): 3.72 µM

CCN(CC)CCCNc1nccc2c(C)c3[nH]c4ccc(O)cc4c3c(C)c12 [SR-26050]
Calu-3 CoV-2 Sinf Average (SARS-CoV-2 [1]): -103%
EC50 (SARS-CoV-2 [1]; [24]): 0.503 µM
HeLa-ACE2 uninfected cytotoxicity Sinf Average (HeLa-ACE2 cells [3]; [23]): -98%
CC50 (HeLa-ACE2 cells [3]; unrounded geometric mean): 0.602 µM
Calu-3 uninfected cytotoxicity Sinf Average (Calu-3 cells [9]; [23]): -100%
CC50 (Calu-3 cells [9]): 5.84 µM
HeLa-ACE2 cell count Sinf Average (HeLa-ACE2 cells [6]): -103%
EC50 (HeLa-ACE2 cells [6]): 0.48 µM
EC50 (Calu-3 cells [10]; unrounded geometric mean): > 9.98 µM
HeLa-ACE2 CoV-2 Sinf Average (SARS-CoV-2 [7]): -101%
EC50 (SARS-CoV-2 [7]; [25]): 0.359 µM

Cc1cccc(/C=N/Nc2cc(N3CCOCC3)nc(OCCc3ccccn3)n2)c1 [Apilimod - control]
EC50 (SARS-CoV-2 [1]; read-out: Calu-3 CoV-2 EC50 GeoMean): 1.87 µM
HeLa-ACE2 synergy score with remdesivi [δ] (SARS-CoV-2 [11]; combination with remdesivir, synergy score δ): 3.568
EC50 (SARS-CoV-2 [12]): > 2.4 µM
HeLa-ACE2 uninfected cytotoxicity Sinf Average (HeLa-ACE2 cells [3]; [26]): -100%
CC50 (HeLa-ACE2 cells [3]): > 11.5 µM
HEK293T 72-hour cytotoxicty Sinf Average (HEK293T [13]): -79%
HepG2 72-hour cytotoxicity Sinf Average (HepG2 [14]): -69%
EC50 (Calu-3 cells [10]): > 2.5 µM
EC50 (HeLa-ACE2 cells [15]): > 2.4 µM
Emax (SARS-CoV-2 [7]; [26]): 95%
EC50 (SARS-CoV-2 [7]; read-out: HeLa-ACE2 CoV-2 EC50 GeoMean): 0.011 µM

CCCCN(CCCC)CCC(O)c1cc2c(Cl)cc(Cl)cc2c2cc(C(F)(F)F)ccc12 (centres unmarked) [Halofantrine HCl]
Emax (SARS-CoV-2 [1]; read-out: Calu-3 CoV-2 Sinf Average): 100%
EC50 (SARS-CoV-2 [1]; Severe acute respiratory syndrome coronavirus 2, Calu-3, reconfirmed hits, read-out: Calu-3 SARS-CoV-2 EC50): > 8.47 µM
Calu-3 SI (SARS-CoV-2 [1]; selectivity index, uninfected Calu-3 CC50 / SARS-CoV-2 EC50): > 2.67
Synergy score with remdesivir (δ) (SARS-CoV-2 [11]; HeLa-ACE2): −3.51
HeLa-ACE2 synergy score with remdesivi (SARS-CoV-2 [11]; combination with remdesivir): -3.509 δ
TOA:HeLa-ACE2 EC50 Ratio (SARS-CoV-2 [12]): 3.833
Emax (SARS-CoV-2 [12]; Severe acute respiratory syndrome coronavirus 2, HeLa-ACE2, 10 h, read-out: HeLa-ACE2 TOA CoV-2 Sinf Average): 100%
EC50 (SARS-CoV-2 [12]; Severe acute respiratory syndrome coronavirus 2, HeLa-ACE2): 4.44 µM
EC50 (HeLa-ACE2 cells [16]): > 9.61 µM
HepG2 72-hour cytotoxicity Sinf Average (HepG2 [17]): -100%
CC50 at 72 h [18]: 30.5 µM
CC50 at 24 h ([2]; reconfirmed hits, read-out: HeLa-ACE2 Uninf. cells CC50): 18.7 µM
CC50 at 24 h ([2]; read-out: HeLa-ACE2 uninfected cytotoxicity CC50 GeoMean): > 23.9 µM
HeLa-ACE2 uninfected cytotoxicity Sinf Average (HeLa-ACE2 cells [3]; human, uninfected HeLa-ACE2 cells, 24 h): -100%
Approx. t1/2 ([19]; human): 58 h
Cmax ([19]; read-out: Approx. Cmax, human oral): 1000 nM
HEK293T 72-hour cytotoxicty Sinf Average (HEK293T [20]): -100%
CC50 at 72 h [21]: 25.8 µM
CC50 at 48 h ([22]; Calu-3 Uninf. cells CC50 (µM), reconfirmed hits): > 22.6 µM
CC50 at 48 h ([22]; Calu-3 uninfected cytotoxicity CC50 GeoMean): > 22.6 µM
Calu-3 uninfected cytotoxicity Sinf Average (Calu-3 cells [9]; human, uninfected Calu-3 cells, 48 h): -100%
EC50 (Calu-3 cells [4]; Calu-3, read-out: Calu-3 cell count EC50 GeoMean): > 9.98 µM
Emax (SARS-CoV-2 [7]): 100%
EC50 (SARS-CoV-2 [7]; Severe acute respiratory syndrome coronavirus 2, HeLa-ACE2, detail column, read-out: HeLa-ACE2 CoV-2 EC50 GeoMean): 1.16 µM
EC50 (SARS-CoV-2 [7]; Severe acute respiratory syndrome coronavirus 2, HeLa-ACE2, reconfirmed hits, read-out: HeLa-ACE2 SARS-CoV-2 EC50): 0.33 µM
HeLa-ACE2 SI (SARS-CoV-2 [7]; selectivity index, uninfected HeLa-ACE2 CC50 / SARS-CoV-2 EC50): > 20.66
Emax (HeLa-ACE2 cells [8]; HeLa-ACE2, 24 h, read-out: HeLa-ACE2 cell count Sinf Average): -39%
EC50 (HeLa-ACE2 cells [8]; HeLa-ACE2, read-out: HeLa-ACE2 cell count EC50 GeoMean): > 6.19 µM
